From paper PMC3954757, “Novel Potent Imidazo[1,2-a]pyridine-N-Glycinyl-Hydrazone Inhibitors of TNF-α Production: In Vitro and In Vivo Studies” (PLoS ONE, 2014) come the findings set out here.

Data set [1] can be described thus: Cell viability by MTT assay. It counts as cell-based, mouse. To be noted: mouse, peritoneal macrophages; 10 µM; MTT; compared to vehicle (DMSO). Here is the method: (§1) The peritoneal macrophage were obtained and plated as described above. The cells were incubated with the vehicle or compounds for 20 hours when was added 200 µL of RPMI medium containing 0.5 mg/mL MTT […] (3-(4,5-dimethylthiazol-2-yl)-2,5-diphenyltetrazolium bromide) followed by 4 hour of incubation at 37°C in a 5% CO2 atmosphere. After incubation supernatants were discarded and 200 µL DMSO (dimethylsulfoxide) were added to solubilize the MTT-formazan crystals. The optical density was measured in a microplate reader at 490 nm. The control groups consisted of cells with medium plus vehicle used to dissolve the substances and was considered as 100% of viable cells. Results are expressed as percentage of viable cells when compared with control groups.

Data set [2] relates to murine peritoneal macrophages. Nature of the data set: Cell viability by MTT assay. Type of data set: cell-based, mouse. The settings on record: for pIC50: Mus musculus, Peritoneal macrophage, MTT cytotoxicity, concentration range 0.1–100 µM; for Selectivity Index (SI): SI = cytotoxicity IC50/anti-TNF-α IC50. Here is the method: as §1
(In general: Formazan colour is commonly taken as a measure of viable cells.)

The target of the next data set is p38α MAPK (Homo sapiens, UniProt Q16539). Nature of the data set: p38α MAPK activity, nonradioactive immunosorbent assay. Type of data set: biochemical. Here is the method:
Because the novel N-acylhydrazone derivatives 1 were designed based on the p38α MAPK inhibitor BIRB-796 (3), some of them were evaluated for their in vitro capacity to inhibit p38α MAPK activity at a concentration of 10 µM.
*This assay was performed as described by Goettert MR, Graeser, Laufer SA (2010) Optimization of a nonradioactive immunosorbent assay for p38 alpha mitogen-activated protein kinase activity. Anal Biochem 406: 233–234.

Data set [3] deals with TNF-α production. Nature of the data set: LPS-induced TNF-α production in culture of mice peritoneal macrophage (ELISA). To be noted: Mus musculus; for inhibition at 10 µM: 24 h, read-out: TNF-α % inhibition at 10 µM; for pIC50: read-out: TNF-α IC50.
Experimental: BALBc mice received thyoglicollate 3% (1 mL/mice; i.p.) and 3 days later the peritoneal cavities were washed with RPMI 1640 culture medium (Sigma, USA, supplemented with 10% fetal bovine serum). The peritoneal macrophages were plated onto 96-wells plate (30.000 cells/well) for 1 hour at 37°C in a humidified 5% CO2 atmosphere. Then, macrophages were incubated with the vehicle or compounds and 1 hour later stimulated with LPS(100 ng/mL) for 24 hours when the supernatants were collected to evaluate TNF-α production by ELISA kit (B&D Bioscience, USA).
In data set [4] the test system is TNF-α production. Nature of the data set: Subcutaneous air pouch (SAP) model, TNF-α in exudate. Type of data set: in vivo, mice. To be noted: 1i oral pre-treatment, carrageenan 1% SAP. From the text:
Because compound 1i provided a better balance between the IC50 value for TNF-α production and cellular toxicity in vitro, we evaluated its effects in the subcutaneous air pouch (SAP) model, an in vivo model of inflammation and TNF production, [28].
Figure 4 Effect of compound 1i on TNF-α production. Twenty-four hours prior to carrageenan (1%) injection into the subcutaneous air pouch (SAP), animals were pretreated by oral administration with different doses of a solution of 1i. The results are presented as the mean ± S. D. (n = 6–10) of TNF-α (pg/mL). Statistical significance was calculated by ANOVA followed by Bonferroni’s test. * indicates p<0.005 for the comparison of 1i -treated mice with the vehicle-treated group; # indicates p<0.005 for the comparison of vehicle-treated mice with the PBS-treated group.
(§2) The experimental protocol was similar to that described by Romano and colleagues (1997) with several modifications described by Raymundo and colleagues (2011). The animals received a dorsal subcutaneous injection of sterile air (10 mL) on three alternate days to induce the SAP. On the sixth day, animals received a subcutaneous injection of sterile carrageenan suspension (1%; 1 mL). Mice were pre-treated with vehicle (Polysorbate 80), 1i (3, 10, 30 and 100 µmol/kg) or dexamethasone (1.5 µmol/kg, i.p.) 1 h before carrageenan injection into the SAP. The control group received an injection of sterile PBS (1 mL) into the SAP. Animals were sacrificed 24 h after carrageenan injection. The cavity was washed with 1 mL of sterile PBS. Exudates were collected, centrifuged at 11,000 rpm for 10 min at 4°C and TNF-α accumulated was quantified. The cytokines quantification was done by enzyme-linked immunosorbent assay (ELISA) according to the manufacturer’s instructions (B&D, USA). The results are expressed as pg/mL of each cytokine. Animals were sacrificed after an exposition to a saturated carbon dioxide atmosphere in an appropriate gas chamber.

The subject of the next data set is IL-1β production. Nature of the data set: Subcutaneous air pouch (SAP) model, IL-1β in exudate. Type of data set: in vivo, mice. The settings on record: oral. The protocol: (§3) We also measured the levels of the cytokines interferon-γ (IFN- γ) and interleukin 1β (IL-1β).
(§4) Figure 5 Effect of compound 1i on IL-1β and IFN-γ production. Twenty-four hours prior to carrageenan (1%) injection into the subcutaneous air pouch (SAP), animals were pretreated by oral administration with different doses of a solution of 1i. The results are presented as the mean ± S. D. (n = 6–10) of each cytokine (ng/mL). Statistical significance was calculated by ANOVA followed by Bonferroni’s test. * indicates p<0.005 for the comparison of 1i -treated mice with the vehicle-treated group; # indicates p<0.005 for the comparison of vehicle-treated mice with the PBS-treated group.
as §2

The test system of a further data set is IFN-γ production. Nature of the data set: Subcutaneous air pouch (SAP) model, IFN-γ in exudate. It counts as in vivo, mice. The settings on record: oral. The protocol:
as §3, §4, §2

pIC50: −log10 of the molar value. Values joined by “and” are separate entries in the source; they are usually repeats but may differ in a detail not shown here. Equal values may be shown once.

p38α MAPK, sequence (Q16539 whole entry): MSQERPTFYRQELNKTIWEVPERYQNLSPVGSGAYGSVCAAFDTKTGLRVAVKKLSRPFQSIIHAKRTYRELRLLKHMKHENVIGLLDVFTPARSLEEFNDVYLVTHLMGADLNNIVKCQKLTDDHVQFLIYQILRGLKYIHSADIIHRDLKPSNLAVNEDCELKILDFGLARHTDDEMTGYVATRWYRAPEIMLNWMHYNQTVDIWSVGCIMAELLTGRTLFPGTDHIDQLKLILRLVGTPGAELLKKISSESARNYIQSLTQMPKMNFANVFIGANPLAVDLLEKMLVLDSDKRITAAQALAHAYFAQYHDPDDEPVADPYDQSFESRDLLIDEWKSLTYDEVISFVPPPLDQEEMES

For `CC(C)(C)c1nc2ccccn2c1NCC(=O)N/N=C/c1ccc(OCCN2CCOCC2)c2ccccc12` [Compound 1a, (E)-2-(2-tert-butylimidazo[1,2-a]pyridin-3-ylamino)-N’-((4-(2-morpholinoethoxy)naphthalen-1-yl)methylene)acetohydrazide], the melting point (in general, the temperature, or range, at which the solid turns liquid) fell in the range of 135 to 137 °C. In addition, in data set [1], the viability (as a rule, a read-out of living cells in per cent, often relative to untreated cells) at 20 h, 10 µM was determined as 20.1%. In addition, in data set [2], the pIC50 (commonly −log10 of the IC50, conventionally taken in molar units) is 5.16 and the “Selectivity Index (SI)” value was 11.1. For the same molecule, at p38α MAPK, the inhibition (usually how much of the control response was suppressed) at 10 µM turned out to be 11.8%. In the data set with TNF-α production [3], the inhibition at 10 µM amounted to 95.3% and the pIC50 is 6.21.
`O=C(CNc1c(-c2ccccc2)nc2ccccn12)N/N=C/c1ccc(OCCN2CCOCC2)c2ccccc12` [Compound 1b, (E)-N’-((4-(2-morpholinoethoxy)naphthalen-1-yl)methylene)-2-(2-phenylimidazo [1,2-a]pyridin-3-ylamino)acetohydrazide] had a melting point of 105 to 108 °C. The molecule also registered a viability at 20 h, 10 µM in data set [1] of 78.4%. Moreover, in data set [2], the pIC50 is 4.83 and the “Selectivity Index (SI)” value is reported as 43.2. At p38α MAPK, the inhibition at 10 µM worked out at 6.5%. Besides, in the data set with TNF-α production [3], the inhibition at 10 µM amounted to 77.3% and the pIC50 was 6.47.
As to `O=C(CNc1c(-c2ccccc2)nc2ccccn12)N/N=C/c1ccc(OCCN2CCOCC2)cc1` [Compound 1c, (E)-N’-(4-(2-morpholinoethoxy)benzylidene)-2-(2-phenylimidazo[1,2-a]pyridin-3-ylamino)acetohydrazide], the melting point is 169 to 171 °C and 167 to 169 °C. In data set [1], this molecule registered a viability at 20 h, 10 µM of 100%. The inhibition at 10 µM at p38α MAPK amounted to 22.6%. In addition, in the data set on TNF-α production [3], the inhibition at 10 µM stood at 18.3%.
`O=C(CNc1c(-c2ccccc2)nc2ccccn12)N/N=C/c1ccc(O)cc1` [Compound 1d, (E)-N’-(4-hydroxybenzylidene)-2-(2-phenylimidazo[1,2-a]pyridin-3-ylamino) acetohydrazide] gave a melting point of 273 to 275 °C. In data set [1], the viability at 20 h, 10 µM was 100%. Also, in the data set on TNF-α production [3], the inhibition at 10 µM came out at 56.7% and the pIC50 is 5.44.
In the case of `O=C(CNc1c(-c2ccccc2)nc2ccccn12)N/N=C/c1ccc(Cl)cc1` [Compound 1e, (E)-N’-(4-chlorobenzylidene)-2-(2-phenylimidazo[1,2-a]pyridin-3-ylamino) acetohydrazide], the melting point was 122 to 124 °C and 120 to 122 °C. In addition, the viability at 20 h, 10 µM in data set [1] is 100%. Further, in the data set on TNF-α production [3], the inhibition at 10 µM was found to be 53.8% and the pIC50 was 5.52.
Molecule `O=C(CNc1c(-c2ccccc2)nc2ccccn12)N/N=C/c1ccccc1` [Compound 1f, (E)-N’-benzylidene-2-(2-phenylimidazo[1,2-a]pyridin-3-ylamino)acetohydrazide] registered a melting point of 138 to 141 °C. The viability at 20 h, 10 µM in data set [1] worked out at 100%. Moreover, in the data set with TNF-α production [3], the inhibition at 10 µM was found to be 29.3%.
Turning to `CC(C)(C)c1nc2ccccn2c1NCC(=O)N/N=C/c1ccccc1` [Compound 1g, (E)-N’-benzylidene-2-(2-tert-butylimidazo[1,2-a]pyridin-3-ylamino)acetohydrazide], the melting point is 230 to 232 °C. For the same molecule, the viability at 20 h, 10 µM in data set [1] came out at 100%. The inhibition at 10 µM in the data set with TNF-α production [3] came to 5.6%.
Regarding `CC(C)(C)c1nc2ccccn2c1NCC(=O)N/N=C/c1ccc(OCCN2CCOCC2)cc1` [Compound 1h, (E)-2-(2-tert-butylimidazo[1,2-a]pyridin-3-ylamino)-N’-(4-(2-morpholinoethoxy)benzylidene)acetohydrazide], in data set [1], the viability at 20 h, 10 µM was found to be 100%. The inhibition at 10 µM with TNF-α production [3] was determined as 2.8%.
In turn, `CC(C)(C)c1nc2ccccn2c1NCC(=O)N/N=C/c1ccc(Cl)cc1` [Compound 1i, (E)-2-(2-tert-butylimidazo[1,2-a]pyridin-3-ylamino)-N’-(4-chlorobenzylidene) acetohydrazide] yielded a melting point of 232 to 234 °C. This molecule also showed a viability at 20 h, 10 µM in data set [1] of 73.3%. Moreover, in data set [2], the pIC50 was 4.66 and the “Selectivity Index (SI)” value amounted to 103.3. Besides, the “reduction of TNF-α production” value in the data set with TNF-α production [4] (3 µmol/kg) worked out at 96.8%. For the same molecule, in the data set with TNF-α production [4] (10 µmol/kg), the “reduction of TNF-α production” value worked out at 90.6%. For the same molecule, the “reduction of TNF-α production” value in the data set with TNF-α production [4] (30 µmol/kg) was found to be 97.3%. Further, the “reduction of TNF-α production” value in the data set on TNF-α production [4] (100 µmol/kg) was 95.31%. Also, the “reduction in IL-1β” value with IL-1β production (3 µmol/kg) is given as 81%. In addition, the “reduction in IL-1β” value in the data set with IL-1β production (10 µmol/kg) is 69.5%. Further, the “reduction in IL-1β” value with IL-1β production (30 µmol/kg) was 74.7%. Besides, the “reduction in IL-1β” value in the data set with IL-1β production (100 µmol/kg) came out at 65.7%. Moreover, in the data set with IFN-γ production (3 µmol/kg), the “inhibition of IFN-γ” value is 83.7%. The “inhibition of IFN-γ” value with IFN-γ production (10 µmol/kg) was 83%. The “inhibition of IFN-γ” value with IFN-γ production (30 µmol/kg) came out at 82.8%. The “inhibition of IFN-γ” value in the data set with IFN-γ production (100 µmol/kg) was 82.4%. In addition, in the data set with TNF-α production [3], the inhibition at 10 µM is 78% and the pIC50 was 6.68.
In turn, `O=C(CNc1c(-c2ccccc2)nc2ccccn12)N/N=C/c1ccc(O)c2ccccc12` [Compound 1j, (E)-N’-((4-hydroxynaphthalen-1-yl)methylene)-2-(2-phenylimidazo[1,2-a]pyridin-3-ylamino)acetohydrazide] showed a melting point of more than 300 °C. The molecule also yielded a viability at 20 h, 10 µM in data set [1] of 40%. In data set [2], the pIC50 is 4.98 and the “Selectivity Index (SI)” value came to 33.5. In the data set on TNF-α production [3], the inhibition at 10 µM is 90.8% and the pIC50 was 6.51.
For `O=C(CNc1c(-c2ccccc2)nc2ccccn12)N/N=C/c1cccc2ccccc12` [Compound 1k, (E)-N’-(naphthalen-1-ylmethylene)-2-(2-phenylimidazo[1,2-a]pyridin-3-ylami-no)acetohydrazide], the melting point fell in the range of 208 to 210 °C. Further, the viability at 20 h, 10 µM in data set [1] amounted to 83.2%. Moreover, in data set [2], the pIC50 was 4.63 and the “Selectivity Index (SI)” value came to 23.7. Moreover, the inhibition at 10 µM at p38α MAPK is 17.2%. For the same molecule, in the data set on TNF-α production [3], the inhibition at 10 µM is 75.8% and the negative-log IC50 (pIC50) is 6.00.
In the case of `CC(C)(C)c1cc(NCC(=O)N/N=C/c2ccc(OCCN3CCOCC3)c3ccccc23)n(-c2ccccc2)n1` [LASSBio-1504 (2), reference compound], the viability at 20 h, 10 µM in data set [1] came out at 61.5%. For the same molecule, in data set [2], the pIC50 was 4.99 and the “Selectivity Index (SI)” value amounted to 2.8. Further, in the data set with TNF-α production [3], the inhibition at 10 µM was 96.9% and the pIC50 is 5.44.
As to `C[S+]([O-])c1ccc(-c2nc(-c3ccncc3)c(-c3ccc(F)cc3)[nH]2)cc1` (stereo not drawn) [SB-203580, reference compound], the viability at 20 h, 10 µM in data set [1] worked out at 44.3%. The inhibition at 10 µM with TNF-α production [3] was determined as 90%.
